Reference: PMC6264278, “Corydaline Inhibits Multiple Cytochrome P450 and UDP-Glucuronosyltransferase Enzyme Activities in Human Liver Microsomes” (Molecules, 2011)
Like-named read-outs stand apart in the source and are kept apart here.

What was measured:
[1] = molecular target: T1, CYP2C9 (Homo sapiens, UniProt P11712); experiment: CYP2C9 diclofenac 4-hydroxylation inhibition in pooled human liver microsomes; assay type: in vitro ADME; conditions: for IC50: 10 μM diclofenac, mean ± SD, n = 3
T1 construct: using pooled human liver microsomes; tissue BD Gentest Co. H161; host or cells: pooled human liver microsomes
T1 sequence (P11712 whole entry): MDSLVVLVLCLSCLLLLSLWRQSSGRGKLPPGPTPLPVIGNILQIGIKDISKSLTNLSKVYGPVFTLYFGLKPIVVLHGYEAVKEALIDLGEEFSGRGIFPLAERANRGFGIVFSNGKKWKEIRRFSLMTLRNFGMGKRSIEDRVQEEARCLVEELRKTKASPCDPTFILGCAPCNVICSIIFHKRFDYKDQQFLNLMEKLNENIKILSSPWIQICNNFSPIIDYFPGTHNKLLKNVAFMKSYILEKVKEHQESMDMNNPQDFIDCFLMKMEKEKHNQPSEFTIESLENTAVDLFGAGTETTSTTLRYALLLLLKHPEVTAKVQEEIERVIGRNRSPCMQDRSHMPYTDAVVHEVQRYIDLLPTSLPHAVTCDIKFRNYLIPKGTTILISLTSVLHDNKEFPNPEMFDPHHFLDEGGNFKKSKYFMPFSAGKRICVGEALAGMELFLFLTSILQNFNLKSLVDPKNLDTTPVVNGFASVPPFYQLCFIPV
Procedure: (§1) Phenacetin O-deethylase, coumarin 7-hydroxylase, amodiaquine N-deethylase, diclofenac 4-hydroxylase, S-mephenytoin 4-hydroxylase, bufuralol hydroxylase, and midazolam 1’-hydroxylase activities were determined as probe activities for CYP1A2, CYP2A6, CYP2C8, CYP2C9, CYP2C19, CYP2D6, and CYP3A4, respectively, using cocktail incubation and liquid chromatography-tandem mass spectrometry (LC/MS/MS). The incubation mixtures were prepared in a total volume of 200 μL, as follows: pooled human liver microsomes (0.25 mg/mL), 1.3 mM NADPH, 3.3 mM MgCl2, 50 mM potassium phosphate buffer (pH 7.4), and a cocktail of probe substrates and various concentrations of corydaline (1−200 μM). The substrates were used at concentrations approximately equal to their respective Km values: 50 μM phenacetin, 2.5 μM coumarin, 2.5 μM amodiaquine, 10 μM diclofenac, 100 μM S-mephenytoin, 5 μM bufuralol, and 2.5 μM midazolam. After a 3-min pre-incubation period at 37 °C, the reactions were initiated by addition of an NADP generating system and incubated for 20 min at 37 °C in a shaking water bath. After incubation, the reaction was stopped by placement of the tubes on ice and addition of 100 μL of ice-cold methanol containing internal standards (^13C2,^15N-acetaminophen for acetaminophen and N-desethylamodiaquine, d5-7-hydroxycoumarin for 7-hydroxycoumarin, ^13C6-4-hydroxydiclofenac for 4-hydroxydiclofenac, d3-4-hydroxy-mephenytoin for 4-hydroxymephenytoin and hydroxymidazolam, d9-1-hydroxybufuralol for 1-hydroxybufuralol). The incubation mixtures were then centrifuged at 13,000 × g for 5 min. All incubations were performed in triplicate and the mean values were used. […] The reaction was started by addition of a cocktail of CYP probe substrates.
All 7 metabolites produced from the cocktail of CYP isoform-specific substrates were simultaneously determined by LC/MS/MS [25]. The system consisted of a tandem quadrupole mass spectrometer (TSQ Quantum Access, ThermoFisher Scientific, San Jose, CA, USA) coupled with a Nanospace SI-2 LC system. Separation was performed on an Atlantis dC18 column (5 μm, 2.1 mm i.d. ×100 mm, Waters, Milford, MA, USA) using the gradient elution of a mixture of 5% methanol in 0.1% formic acid (mobile phase A) and 95% methanol in 0.1% formic acid (mobile phase B) at a flow rate of 0.25 mL/min: 10% mobile phase B for 1 min, 10% to 95% mobile phase B for 1 min, 95% mobile phase B for 5 min. The column and autosampler temperatures were 50 and 6 °C, respectively. After 1.5 min, the LC eluent was diverted from waste to the mass spectrometer fitted with the electrospray ionization (ESI) source and operated in positive ion mode. […] Quantification was performed by selected reaction monitoring (SRM) of the [M+H]^+ ion and the related product ion for each metabolite. […]
(§2) Reactions were initiated by addition of NADPH at 37 °C and stopped after 15 min by placement of the incubation tubes on ice and addition of ice-cold methanol (100 μL) containing an internal standard (2.0 μg/mL ^13C6-4-hydroxydiclofenac for diclofenac, 0.5 μg/mL d3-4-hydroxymephenytoin for mephenytoin, or 0.5 μg/mL d9-1-hydroxy-bufuralol for bufuralol). The incubation mixtures were centrifuged at 13,000 × g for 5 min, and aliquots (5 μL) of the supernatants were analyzed by LC/MS/MS. […] Aliquots (5 μL) were analyzed by LC/MS/MS. […]

[2] = molecular target: T2, CYP2C19 (Homo sapiens, UniProt P33261); experiment: CYP2C19 S-mephenytoin 4'-hydroxylation inhibition in pooled human liver microsomes; assay type: in vitro ADME; conditions: for IC50: 100 μM S-mephenytoin, mean ± SD, n = 3
T2 construct: using pooled human liver microsomes; tissue BD Gentest Co. H161; host or cells: pooled human liver microsomes
T2 sequence (P33261 whole entry): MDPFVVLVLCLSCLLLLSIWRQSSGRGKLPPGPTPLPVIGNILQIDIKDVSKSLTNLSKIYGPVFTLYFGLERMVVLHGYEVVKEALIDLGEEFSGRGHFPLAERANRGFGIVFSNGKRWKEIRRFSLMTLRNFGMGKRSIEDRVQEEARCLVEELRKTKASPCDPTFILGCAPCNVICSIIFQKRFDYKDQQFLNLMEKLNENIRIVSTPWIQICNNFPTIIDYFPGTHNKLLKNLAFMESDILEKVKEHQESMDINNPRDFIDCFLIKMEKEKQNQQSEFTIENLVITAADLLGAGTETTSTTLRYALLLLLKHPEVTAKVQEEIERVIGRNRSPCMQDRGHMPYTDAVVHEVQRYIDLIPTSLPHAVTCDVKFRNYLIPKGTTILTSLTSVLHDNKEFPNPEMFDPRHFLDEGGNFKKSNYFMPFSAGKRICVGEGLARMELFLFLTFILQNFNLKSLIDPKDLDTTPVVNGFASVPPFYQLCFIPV
Procedure: as §1
All 7 metabolites produced from the cocktail of CYP isoform-specific substrates were simultaneously determined by LC/MS/MS [25]. The system consisted of a tandem quadrupole mass spectrometer (TSQ Quantum Access, ThermoFisher Scientific, San Jose, CA, USA) coupled with a Nanospace SI-2 LC system. […] Quantification was performed by selected reaction monitoring (SRM) of the [M+H]^+ ion and the related product ion for each metabolite. […]
as §2

[3] = Lineweaver, Dixon and secondary reciprocal plots

COc1cc2c(cc1OC)C1C(C)c3ccc(OC)c(OC)c3CN1CC2 (stereo not drawn) [Corydaline, 2,3,9,10-tetramethoxy-13-methyl-5,8,13,13a-tetrahydro-6H-isoquino[3,2-a]isoquinoline] was tested, and the “inhibition mode, CYP2C9 diclofenac 4-hydroxylation” value [1, 3] was “noncompetitive”, the Ki ([1]; human liver microsomes, 1-10 μM diclofenac) was 7.1 ± 0.4 µM and the Ki at 15 min ([1]; pH 7.4, probe diclofenac (1-10 μM), 4-hydroxylation, human liver microsomes, 1-10 μM diclofenac) was 7 µM. The IC50 ([1]; pooled human liver microsomes (H161), read-out: IC50 no preincubation, CYP2C9 diclofenac 4-hydroxylation) was 26.2 ± 4.6 µM, the IC50 ([1]; pre-incubated 30 min with NADPH, read-out: IC50 with preincubation, CYP2C9 diclofenac 4-hydroxylation) was 30.6 ± 4.1 µM and the “inhibition mode, CYP2C19 S-mephenytoin 4'-hydroxylation” value [2, 3] was “competitive”. The Ki ([2]; human liver microsomes, 10-40 μM S-mephenytoin) was 1.7 ± 0.5 µM, the IC50 ([2]; pooled human liver microsomes (H161), read-out: IC50 no preincubation, CYP2C19 S-mephenytoin 4'-hydroxylation) was 11.7 ± 1.4 µM and the IC50 ([2]; pre-incubated 30 min with NADPH, read-out: IC50 with preincubation, CYP2C19 S-mephenytoin 4'-hydroxylation) was 19.2 ± 1.8 µM.
